Measurements published in patent US20230172933A1, “USE OF A COMPOUND OR COMPOSITION COMPRISING AN INHIBITOR OF NLRP1 INFLAMMASOME ACTIVATION FOR THE TREATMENT OF HUMAN AIRWAY INFLAMMATION” (Nanyang Technological University, priority 2020, published 2023).
“Also recorded” adds a separate entry of the source. Peptide text beside a SMILES is read from it. * marks the point of attachment. Cbz = O=C(OCc1ccccc1)*

What was measured:
human NLRP1 inflammasome = test: HRV14-3Cpro-induced ASC-GFP speck formation in 293T-ASC-GFP-NLRP1-FLAG reporter cells; type: cell-based; details: 293T-ASC-GFP-NLRP1-FLAG cells transfected with HRV14-3Cpro; MLN4924 1 μM, MG132 2.5 μM, Bortezomib 0.5 μM, phenylalanine 1 mM; 24 hours
NLRP1 = NLRP1 self-oligomerization (BN-PAGE) and cleavage fragment (SDS-PAGE/Western blot) in 293T-NLRP1-FLAG cells transfected with HRV14-3Cpro; type: cell-based, human; details: for stabilization of the post-cleavage NLRP1 fragment (a.a. 131-1213): 293T-NLRP1-FLAG cells transfected with HRV14-3Cpro, Western blot; for HRV14-3Cpro-induced NLRP1 self-oligomerization: 293T-NLRP1-FLAG cells, BN-PAGE, drugs for 24 hours, MG132 2.5 μM
[1] = system: endogenous NLRP1 inflammasome; test: Endogenous NLRP1 inflammasome in doxycycline-induced Tet-ON HRV14-3Cpro N/TERT keratinocytes; type: cell-based, human; details: doxycycline 24 hours; for mature IL-1β secretion upon HRV14-3Cpro induction: Western blot, ELISA
[2] = system: NLRP1 inflammasome in HRV16-infected NHBEs; test: HRV16-induced IL-1β and IL-18 secretion in NHBEs (ELISA); type: cell-based, human; details: HRV16 MOI=5, 33° C., 48 hours, pre-treated: MLN4924 1 μM, Bortezomib 1 μM, MCC950 5 μM, Rupintrivir 10 nM
Experimental: (§1) (A) Expression levels of NLRP1 vs. NLRP3 (RNAseq FKPM) in NHBEs. n=21, independent cultures of pooled NHBEs from healthy donors. (B) Expression of NLRP1 vs. NLRP3 in healthy human nasal biopsy. Puncta: positive staining by RNAscope. Nuclei staining: hematoxylin. (C) Overview of cytokine profiling of by HRV16-infected and Talabostat-treated NHBEs. (D) Cells were inoculated with HRV16 at MOI=5 and cultured at 33° C. for 48 hours. Luminex array was performed on conditioned media after removing cell debris. n=3 independent infections and treatment. Cytokines/chemokines that were induced at least 5 fold (p<0.05, Student's t test, lognormal values) are represented by square boxes. […] NHBEs were pretreated with MCC950 (5 μM) or Rupintrivir (10 nM) before HRV16 inoculation or Talabostat (2 μM) treatment. […] (G) Overview of apical HRV infection 3D human bronchial epithelial cultures. (H) Alcian blue (AB)/periodic acid-Schiff (PAS) staining of HRV16-infected (MOI=3) and Talabostat (2 μM)-treated 3D human bronchial epithelial cultures. (1) IL-18 level in apical or basal media 48 hours post-infection or Talabostat treatment. **P<0.01, ***P<0.001, ****P<0.0001 (Two-way ANOVA). n=3 independent infected/treated cultures. (J) Secretion of cleaved IL-1β and IL-18 and ASC oligomerization in HRV16-infected primary NHBEs. Cells were inoculated with HRV16 (MOI=5) or treated with Talabostat (2 μM) for 48 hours at 33° C.
(A) Endogenous NLRP1, ASC and caspase-1 are indispensable for HRV16-induced IL-18 secretion in NHBEs. Cas9-control, NLRP1, ASC and CASP1 KO NHBEs were infected with HRV16 as before. Conditioned media were harvested 48 hours post-infection. (B) NLRP1 is genetically required for HRV16-induced IL-18 cleavage and ASC oligomerization. Cas9 control, NLRP1 and ASC KO NHBEs were infected with HRV16 as before. Cleaved IL-18 are marked with arrows. (C) Mutating the NLRP1 cleavage site abrogates HRV16-triggered IL-18 secretion in NHBEs. NLRP1 KO NHBEs were rescued with lentiviral constructs expressing FLAG-tagged NLRP1^WT or NLRP1^Q130A, which carried silent mutations at the PAM sites. The rescued cells were infected with HRV16 or treated with Talabostat. Conditioned media was analyzed by IL-18 ELISA. **P<0.01, ***P<0.001, n=3 replicates from one of two independent infections. (D) Q130A abrogates NLRP1 cleavage, IL-18 maturation and ASC oligomerization in NHBEs. NLRP1 KO or NLRP1^WT- or NLRP1^Q130A-rescued cells were infected with HRV16 or treated with Talabostat. Cells were harvested 48 hours post infection. Arrow: NLRP1 cleavage product in lane 8 HRV16. *: Non-specific NLRP1 degradation product that occurs right below the a.a. 131-1213 cleavage fragment. See also FIG. 3E, 5E, 5D. (E) MLN4924 and Bortezomib blocks HRV16-induced IL-18 secretion. NHBEs were pre-treated with MLN4924 (1 μM) or Bortezomib (1 μM) before HRV16 infection or Talabostat treatment. IL-18 levels were measured with ELISA. ****, p<0.0001 (Two-way ANOVA), n=3 independent infections/treatment. (F) MLN4924 and Bortezomib blocks HRV16-induced IL-1β secretion. […] Lysates from HRV16-infected NHBEs in FIGS. 9E-F were analyzed by Western blot 48 hours post HRV16 inoculation.
(§2) The following antibodies were used in this study: c-Myc (Santa Cruz Biotechnology #sc-40), HA tag (Santa Cruz Biotechnology, #sc-805), GAPDH (Santa Cruz Biotechnology, #sc-47724), ASC (Adipogen, #AL-177), CASP1 (Santa Cruz Biotechnology, #sc-622), IL1B (R&D systems, #AF-201), FLAG (SigmaAldrich, #F3165), GFP (Abcam, #ab290), NLRP1 (R&D systems, #AF6788), IL18 (Abcam ab207324) and VP2 (QED Bioscience, #18758). HRV16-3Cpro was detected by rabbit serum, a kind gift from Dr. Ann Palmenberg and Dr. James Gern (University of Wisconsin). Cytokine and chemokine measurements were carried out with human IL-1B ELISA kit (BD, #557953), human IL-18 ELISA kit (MBL Bioscience, #7620) and Immune Monitoring 65-Plex Human ProcartaPlex™ Panel (ThermoFisher EPX650-10065-901). […]

[3] = system: NLRP1 inflammasome in Talabostat-treated NHBEs; test: Talabostat-induced IL-1β and IL-18 secretion in NHBEs (ELISA); type: cell-based, human; details: Talabostat 2 μM, pre-treated: MLN4924 1 μM, MCC950 5 μM, Rupintrivir 10 nM
Experimental: as §1
(A) Endogenous NLRP1, ASC and caspase-1 are indispensable for HRV16-induced IL-18 secretion in NHBEs. Cas9-control, NLRP1, ASC and CASP1 KO NHBEs were infected with HRV16 as before. Conditioned media were harvested 48 hours post-infection. (B) NLRP1 is genetically required for HRV16-induced IL-18 cleavage and ASC oligomerization. Cas9 control, NLRP1 and ASC KO NHBEs were infected with HRV16 as before. Cleaved IL-18 are marked with arrows. […] Conditioned media was analyzed by IL-18 ELISA. **P<0.01, ***P<0.001, n=3 replicates from one of two independent infections. […] IL-18 levels were measured with ELISA. ****, p<0.0001 (Two-way ANOVA), n=3 independent infections/treatment. […] Lysates from HRV16-infected NHBEs in FIGS. 9E-F were analyzed by Western blot 48 hours post HRV16 inoculation.
as §2, with “Wisconsin).” for “Wisconsin). Cytokine and chemokine measurements were carried out with human IL-1B ELISA kit (BD, #557953), human IL-18 ELISA kit (MBL Bioscience, #7620) and Immune Monitoring 65-Plex Human ProcartaPlex™ Panel (ThermoFisher EPX650-10065-901).”

[4] = system: NLRP1 cleavage by HRV16 3Cpro; test: NLRP1 cleavage in HRV16-infected HeLa-Ohio-NLRP1-HA cells; type: cell-based, human; details: HRV16 MOI=1
Experimental: (A) HRV16 infection causes NLRP1 cleavage in HeLa-Ohio-NLRP1-HA cells. MOI=1. (B) Q130A abrogates HRV16-induced NLRP1 cleavage and ASC-GFP oligomerization. HeLa-Ohio-ASC-GFP-NLRP1WT or NLRP1^Q130A cells were infected with HRV16 at MOI=1 at 33° C. Cell pellets were harvested 48 hours post infection. (C) The effect of HRV16 infection on ASC-GFP speck formation in HeLa-Ohio-ASC-GFP cells expressing wild-type NLRP1 or NLRP1^Q130A. ***P<0.001 (Two-way ANOVA). n=3 replicates from one of two independent infections, >100 cells per condition. (D) Representative images of ASC-GFP specks in HeLa-Ohio-ASC-GFP cells expressing wild-type NLRP1 or NLRP1^Q130A. Arrows: ASC-GFP specks. Note that in this cell line the ASC-GFP specks appear less compact, even in Talabostat-treated positive control cells. […]
The effect of live HRV infection in disease-relevant human epithelial cell types was then examined. In HeLa-Ohio cells overexpressing NLRP1-HA, robust HRV16 viral replication was achieved 16 hours post inoculation (MOI=1) as detected by the accumulation of the viral capsid protein VP2 (FIG. 8A, lanes 4, 5, 10 and 11). […] Using HeLa-Ohio cells that additionally expressed ASC-GFP, we next tested whether HRV16 infection could lead to NLRP1 inflammasome complex assembly. […]

| SMILES | HRV14-3Cpro-induced ASC-GFP speck formation (human NLRP1 inflammasome) | stabilization of the post-cleavage NLRP1 fragment (a.a. 131-1213) (NLRP1) | ASC oligomerization upon HRV14-3Cpro induction [1] | mature IL-1β secretion upon HRV14-3Cpro induction [1] | HRV16-induced IL-1β secretion [2] | HRV16-induced IL-18 secretion [2] | HRV16-induced IL-1β secretion ([2]; listed as bortezomib) | HRV16-induced IL-18 secretion ([2]; listed as bortezomib) | Talabostat-induced IL-1β secretion [3] | Talabostat-induced IL-18 secretion [3] | HRV14-3Cpro-induced NLRP1 self-oligomerization (NLRP1) | NLRP1 cleavage [4] |
| --- | --- | --- | --- | --- | --- | --- | --- | --- | --- | --- | --- | --- |
| CC(C)C[C@H](NC(=O)[C@H](Cc1ccccc1)NC(=O)c1cnccn1)B(O)O [Bortezomib, [(1R)-3-methyl-1-[[(2S)-3-phenyl-2-(pyrazine-2-carbonylamino)propanoyl]amino]butyl]boronic acid] | blocked | to similar degrees | completely blocked | completely blocked | blocks | blocks | completely blocked | completely blocked | – | – | – | – |
| CC(C)(O)c1coc(S(=O)(=O)NC(=O)Nc2c3c(cc4c2CCC4)CCC3)c1 [MCC950] | – | – | – | – | neither IL-1β nor IL-18 secretion was affected; also recorded: did not affect | neither IL-1β nor IL-18 secretion was affected | – | – | neither IL-1β nor IL-18 secretion was affected | neither IL-1β nor IL-18 secretion was affected | – | – |
| CC(C)C[C@@H](C=O)NC(=O)[C@H](CC(C)C)NC(=O)[C@H](CC(C)C)NC(=O)OCc1ccccc1 [MG132, benzyl N-[(2S)-4-methyl-1-[[(2S)-4-methyl-1-[[(2S)-4-methyl-1-oxopentan-2-yl]amino]-1-oxopentan-2-yl]amino]-1-oxopentan-2-yl]carbamate] (Cbz-Leu-Leu-Leu-aldehyde) | significantly blocked | to similar degrees | completely abrogated | completely abrogated | – | – | – | – | – | – | significantly blocked | – |
| CCOC(=O)/C=C/[C@H](C[C@@H]1CCNC1=O)NC(=O)[C@@H](CC(=O)[C@@H](NC(=O)c1cc(C)on1)C(C)C)Cc1ccc(F)cc1 [Rupintrivir] | – | – | – | – | completely abrogated | completely abrogated | – | – | – | – | – | completely abrogated |
| N[C@@H](Cc1ccccc1)C(=O)O [phenylalanine] | had no effect | – | – | – | – | – | – | – | – | – | had no effect | – |
